Several values for one entry are separate records, joined by “and”; a condition that tells them apart may be missing. Equal values may be shown once. Inconclusive results and toxic doses are left out. No stated cut-off is given here; in the data, active means T/C of 150% or more; inactive means T/C below 125%.
System: L1210 leukemia ip in BDF1 mice, survival T/C
Experiment: NCI In Vivo Anticancer Drug Screen. Data for tumor model L1210 Leukemia (intraperitoneal) in B6D2F1 (BDF1) mice
Details: endpoint: mean survival time, higher = longer survival
In short: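 Tumor cells were implanted, animals were treated, and survival was followed. The result divides the treated measurement by the vehicle-control measurement.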

[1] = dose: 100.0 mg/kg/injection, schedule: Q01DX001 (ip), vehicle: saline
[2] = dose: 100.0 mg/kg/injection, schedule: Q01DX001 (ip), vehicle: saline with Tween-80
[3] = dose: 200.0 mg/kg/injection, schedule: Q01DX001 (ip), vehicle: saline with Tween-80
[4] = dose: 100.0 mg/kg/injection, schedule: Q01DX009 (ip), vehicle: Klucel (hydroxypropylcellulose) (HPC)
[5] = dose: 200.0 mg/kg/injection, schedule: Q01DX009 (ip), vehicle: Klucel (hydroxypropylcellulose) (HPC)

Measured: T/C

OCCOCCN1CCN(CC/C=C2\c3ccccc3Sc3ccc(C(F)(F)F)cc32)CC1
inactive: dose: 1.56 mg/kg/injection, schedule: Q01DX009 (ip), vehicle: saline 104 % of control | dose: 1.56 mg/kg/injection, schedule: Q04DX003 (ip), vehicle: saline 100 % of control | dose: 2.5 mg/kg/injection, schedule: Q01DX009 (ip), vehicle: saline 98 % of control | dose: 3.12 mg/kg/injection, schedule: Q01DX009 (ip), vehicle: saline 111 % of control | dose: 3.12 mg/kg/injection, schedule: Q04DX003 (ip), vehicle: saline 94 % of control | dose: 5.0 mg/kg/injection, schedule: Q01DX009 (ip), vehicle: saline 108 % of control | dose: 6.25 mg/kg/injection, schedule: Q01DX009 (ip), vehicle: saline 106 % of control | dose: 6.25 mg/kg/injection, schedule: Q04DX003 (ip), vehicle: saline 101 % of control | dose: 6.9 mg/kg/injection, schedule: Q01DX015 (ip), vehicle: saline 115 % of control | dose: 8.0 mg/kg/injection, schedule: Q04DX003 (ip), vehicle: saline with Tween-80 116 % of control | dose: 9.2 mg/kg/injection, schedule: Q01DX009 (ip), vehicle: saline 103 % of control | dose: 10.0 mg/kg/injection, schedule: Q01DX009 (ip), vehicle: saline 117 % of control | dose: 10.3 mg/kg/injection, schedule: Q01DX015 (ip), vehicle: saline 105 % of control | dose: 14.0 mg/kg/injection, schedule: Q01DX009 (ip), vehicle: saline 117 % of control | dose: 20.0 mg/kg/injection, schedule: Q01DX009 (ip), vehicle: saline 117 % of control | dose: 21.0 mg/kg/injection, schedule: Q01DX009 (ip), vehicle: saline 88 % of control | dose: 25.0 mg/kg/injection, schedule: Q01DX001 (ip), vehicle: saline 116 % of control | dose: 40.0 mg/kg/injection, schedule: Q01DX009 (ip), vehicle: saline 96 % of control | dose: 50.0 mg/kg/injection, schedule: Q01DX001 (ip), vehicle: saline 105 % of control and 114 % of control | [1] 108 % of control | dose: 100.0 mg/kg/injection, schedule: Q04DX003 (ip), vehicle: saline 123 % of control

O=C(O)COc1ccc(Cl)cc1Cc1ccccc1
inactive: [2] 98 % of control | [3] 96 % of control | dose: 400.0 mg/kg/injection, schedule: Q01DX001 (ip), vehicle: saline with Tween-80 117 % of control

CCOC(=O)c1ccc(C(=O)OCC)c(C#N)n1
inactive: [4] 102 % of control | dose: 100.0 mg/kg/injection, schedule: Q04DX003 (ip), vehicle: Klucel (hydroxypropylcellulose) (HPC) 100 % of control | [5] 97 % of control | dose: 200.0 mg/kg/injection, schedule: Q04DX003 (ip), vehicle: Klucel (hydroxypropylcellulose) (HPC) 93 % of control | dose: 400.0 mg/kg/injection, schedule: Q04DX003 (ip), vehicle: Klucel (hydroxypropylcellulose) (HPC) 95 % of control

CC(C(=O)O)C(NC(=O)c1ccccc1)C(=O)O (stereo not given)
inactive: dose: 100.0 mg/kg/injection, schedule: Q01DX001 (ip), vehicle: Klucel (hydroxypropylcellulose) (HPC) 93 % of control | dose: 200.0 mg/kg/injection, schedule: Q01DX001 (ip), vehicle: Klucel (hydroxypropylcellulose) (HPC) 100 % of control | dose: 400.0 mg/kg/injection, schedule: Q01DX001 (ip), vehicle: Klucel (hydroxypropylcellulose) (HPC) 92 % of control

NNc1nncc(=O)[nH]1
inactive: [2] 103 % of control | [3] 103 % of control

COC(=O)c1ccccc1NC(=O)c1cccc(F)c1
inactive: [4] 95 % of control | [5] 105 % of control | dose: 400.0 mg/kg/injection, schedule: Q01DX009 (ip), vehicle: Klucel (hydroxypropylcellulose) (HPC) 103 % of control

CCS(=O)(=O)c1ccc(NC(=O)OC2CC(C)CCC2C(C)C)cc1 (stereo not given)
inactive: dose: 100.0 mg/kg/injection, schedule: Q01DX001 (ip), vehicle: carboxymethylcellulose (CMC) 100 % of control | dose: 200.0 mg/kg/injection, schedule: Q01DX001 (ip), vehicle: carboxymethylcellulose (CMC) 102 % of control | dose: 400.0 mg/kg/injection, schedule: Q01DX001 (ip), vehicle: carboxymethylcellulose (CMC) 91 % of control

B1CCN1
inactive: dose: 9.5 mg/kg/injection, schedule: Q01DX001 (ip), vehicle: saline 94 % of control | dose: 19.0 mg/kg/injection, schedule: Q01DX001 (ip), vehicle: saline 103 % of control

CCC(C(=O)O)N1C(=O)c2ccccc2C1=O (stereo not given)
inactive: [1] 102 % of control | dose: 200.0 mg/kg/injection, schedule: Q01DX001 (ip), vehicle: saline 97 % of control | dose: 400.0 mg/kg/injection, schedule: Q01DX001 (ip), vehicle: saline 103 % of control

Cc1cc[n+](C)c2ccccc12
inactive: dose: 9.37 mg/kg/injection, schedule: Q01DX009 (ip), vehicle: saline with Tween-80 101 % of control | dose: 18.75 mg/kg/injection, schedule: Q01DX009 (ip), vehicle: saline with Tween-80 112 % of control | dose: 37.5 mg/kg/injection, schedule: Q01DX009 (ip), vehicle: saline with Tween-80 100 % of control | dose: 37.5 mg/kg/injection, schedule: Q04DX003 (ip), vehicle: saline 100 % of control | dose: 75.0 mg/kg/injection, schedule: Q01DX001 (ip), vehicle: saline 103 % of control

Reference: PubChem BioAssay AID248 (DTP/NCI, 2004)
